Values joined by “and” are separate entries in the source; they are usually repeats but may differ in a detail not shown here. Equal entries are not always repeated.
Tests used:
[1] = The ratio of SD90 of the quinine hydrochloride, to the SD90 of the test substance for the Dose of 47 mg/kg; assay type: functional
[2] = system: Plasmodium berghei; experiment: Antimalarial effect against trophozoite-induced Plasmodium berghei in mice (Mus musculus) after 40 mg/kg subcutaneous dose; assay type: functional
[3] = system: Plasmodium berghei; experiment: Antimalarial activity against trophozoite-induced Plasmodium berghei in mice (Mus musculus); assay type: functional
[4] = system: Plasmodium berghei; experiment: Antimalarial effect against trophozoite-induced Plasmodium berghei in mice (Mus musculus) at 160 mg/kg subcutaneous dose; assay type: functional
[5] = system: Mus musculus; experiment: Number of toxic deaths at a dose of 640 mg/kg; assay type: toxicity, organism-based; parameters: dose 640 mg/kg; conditions: in vivo
[6] = system: Plasmodium berghei; experiment: Antimalarial effect against trophozoite-induced Plasmodium berghei in mice (Mus musculus) after 20 mg/kg subcutaneous dose; assay type: functional
[7] = The ratio of SD90 of the quinine hydrochloride, to the SD90 of the test substance for the Dose of 46 mg/kg; assay type: functional
[8] = system: Plasmodium berghei; experiment: Antimalarial effect against trophozoite-induced Plasmodium berghei in mice (Mus musculus) at 80 mg/kg subcutaneous dose; assay type: functional
[9] = system: Plasmodium berghei; experiment: (§1) Antimalarial effect against trophozoite-induced Plasmodium berghei in mice (Mus musculus) at 640 mg/kg subcutaneous dose; assay type: functional
[10] = system: Plasmodium berghei; experiment: Antimalarial effect against trophozoite-induced Plasmodium berghei in mice (Mus musculus) at 320 mg/kg subcutaneous dose; assay type: functional
[11] = The ratio of SD90 of the quinine hydrochloride, to the SD90 of the test substance for the Dose of 91 […]; assay type: functional
[12] = system: Mus musculus; experiment: Antimalarial effect against trophozoite induced Plasmodium berghei in mice (Mus musculus) at dosage of 160 mg/kg after subcutaneous administration; No. of mice (Mus musculus) surviving after 60 days 1; assay type: functional
[13] = The ratio of SD90 of the quinine hydrochloride, to the SD90 of the test substance for the Dose of 82 mg/kg; assay type: functional
[14] = The ratio of SD90 of the quinine hydrochloride, to the SD90 of the test substance for the Dose of 97 mg/kg/day; assay type: functional
[15] = system: Plasmodium berghei; experiment: as §1; assay type: functional; remark: listed apart in the source
[16] = system: Mus musculus; experiment: Number of mice cured at a subcutaneous dose of 320 mg/kg.; assay type: functional
[17] = system: Mus musculus; experiment: Number of mice cured at a subcutaneous dose of 160 mg/kg.; assay type: functional
[18] = system: Mus musculus; experiment: Number of mice cured at a dose of 640 mg/kg sc; assay type: functional; conditions: route subcutaneous
[19] = system: Plasmodium berghei; experiment: Antimalarial activity against trophozoite-induced Plasmodium berghei in mice (Mus musculus) at 160 mg/kg subcutaneous dose; assay type: functional
[20] = The ratio of SD90 of the quinine hydrochloride, to the SD90 of the test substance for the Dose of 9.2 mg/kg; assay type: functional
[21] = system: Mus musculus; experiment: Antimalarial effect against trophozoite-induced Plasmodium berghei in mice (Mus musculus) at dosage of 640 mg/kg after subcutaneous administration; No. of mice (Mus musculus) surviving after 60 days 4; assay type: functional
[22] = system: Mus musculus; experiment: Number of toxic deaths at a dose of 320 mg/kg; assay type: toxicity, organism-based; parameters: dose 320 mg/kg; conditions: in vivo
[23] = The ratio of SD90 of the quinine hydrochloride, to the SD90 of the test substance for the Dose of mg/kg; assay type: functional
[24] = system: Mus musculus; experiment: Number of mice cured at a subcutaneous dose of 640 mg/kg.; assay type: functional
[25] = system: Mus musculus; experiment: Number of mice cured at a dose of 320 mg/kg sc; assay type: functional; conditions: route subcutaneous
[26] = The ratio of SD90 of the quinine hydrochloride, to the SD90 of the test substance for the Dose of 16 mg/kg; assay type: functional
[27] = The ratio of SD90 of the quinine hydrochloride, to the SD90 of the test substance for the Dose of 18.5 mg/kg; assay type: functional
[28] = The ratio of SD90 of the quinine hydrochloride, to the SD90 of the test substance for the Dose of 35 mg/kg; assay type: functional
[29] = system: Mus musculus; experiment: Antimalarial effect against trophozoite-induced Plasmodium berghei in mice (Mus musculus) at dosage of 320 mg/kg after subcutaneous administration;; assay type: functional
[30] = system: Mus musculus; experiment: Number of mice cured at a dose 160 mg/kg sc; assay type: functional; conditions: route subcutaneous
[31] = The ratio of SD90 of the quinine hydrochloride, to the SD90 of the test substance for the Dose of 63 mg/kg; assay type: functional

SMILES | MST [2] [days] | SD90 [3] [mg/kg/day] | MST [4] [days] | MST [6] [days] | MST [8] [days] | MST ([4]; 160 mg/kg) | MST [10] [days] | MST ([2]; 40 mg/kg) | No. of survivals [16] | No. of survivals [18] | also measured
CSc1ccc(Nc2nc(NCCCN3CCCC3)c3ccccc3n2)cc1 | 1 | 47 | 6.8 | – | – | – | – | – | – | – | Ratio [1]: 1.6; No. of toxic deaths [5]: 5
CCN1CCCC(Nc2nc(Nc3ccc(Cl)c(Cl)c3)nc3ccc(Cl)cc23)C1 (stereo not given) | 0.1 | 46 | 0.3 | 0.1 | – | – | – | – | – | – | Ratio [7]: 1.6
Brc1cccc(Nc2nc(NCCN3CCCC3)c3ccccc3n2)c1 | – | 91 | – | 0.2 | 0.4 | 4.4 days and 4 days | 5 | – | – | – | MST ([9]; 640 mg/kg): 8.4 days and 8.1 days; Ratio [11]: 0.8
CCN(CC)CCNc1nc(Nc2ccc(Cl)c(Cl)c2)c2ccccc2n1 | – | – | 0.9 | 0.2 | 0.2 | – | 3.2 | – | – | – | MST [12]: 0.2 days; MST ([9]; 640 mg/kg): 10.3 days and 5.4 days and 5.9 days
CCN(CC)CCNc1nc(Nc2ccc(Cl)c(Cl)c2)nc2cc(NCc3ccc(Cl)c(Cl)c3)ccc12 | – | 82 | – | – | – | 1.3 days and 1 days and 0.7 days | – | 0.1 days and 0.2 days and 0.3 days | – | – | Ratio [13]: 0.9; MST ([6]; 20 mg/kg): 0.1 days and 0.2 days and 0.3 days; MST ([8]; 80 mg/kg): 0.3 days and 0.6 days; MST [9]: 8.9 days; MST ([10]; 320 mg/kg): 1.7 days and 2 days and 2.5 days
Clc1cccc(Nc2nc(NCCN3CCCC3)c3ccccc3n2)c1 | – | 97 | – | 0.4 | 1.4 | 2.8 days and 3.5 days | 4.2 | 0.6 days and 0.7 days | – | – | Ratio [14]: 0.8; MST ([9]; 640 mg/kg): 10.2 days and 11.1 days
c1ccc2c(NCCCN3CCCC3)nc(Nc3nccs3)nc2c1 | 0.3 | – | 0.3 | – | – | – | – | – | – | – | MST [15]: 0.9 days; No. of toxic deaths [5]: 3
CCN(CC)CCNc1nc(Nc2ccc(Cl)c(Cl)c2)nc2ccc(N)cc12 | 3.8 | 47 | – | – | 6.8 | – | – | – | 5 | 3 | No. of survivals [17]: 4; MST ([6]; 20 mg/kg): 1.6 days and 2 days; Ratio [1]: 1.6; MST [19]: 29.8 days; No. of toxic deaths [5]: 2
CCN(CC)CCNc1nc(Nc2ccc(Cl)c(Cl)c2)nc2cc([N+](=O)[O-])ccc12 | 0.3 | 9.2 | – | 0.3 | 0.9 | 0.9 days and 1.1 days | 9.5 | – | – | 3 | Ratio [20]: 8.1; MST [15]: 26.9 days; MST [21]: 21.9 days
CN1CCCC1CCNc1nc(Nc2ccc(Cl)c(Cl)c2)c2ccccc2n1 (stereo not given) | 0.5 | – | – | 0.3 | – | 6.9 days and 7.1 days | 11.2 | – | 1 | 1 | No. of toxic deaths [22]: 1 and 2; MST ([8]; 80 mg/kg): 0.5 days and 0.7 days; No. of toxic deaths [5]: 2
CCN1CCCC(Nc2nc(Nc3cc(Cl)cc(Cl)c3)nc3cc(Cl)ccc23)C1 (stereo not given) | 0.2 | 73 | 0.4 | – | – | – | – | – | – | – | MST [9]: 1.6 days; Ratio [23]: 73
CN(C)C1CCC(Nc2nc(Nc3ccc(Cl)c(Cl)c3)nc3ccccc23)CC1 (stereo in doubt; 24) | – | 9.2 | – | – | 6.4 | – | – | 4.8 days and 3.8 days | 3 | – | Ratio [20]: 8.2; No. of survivals ([17]; 160 mg/kg): 1 and 2; MST ([6]; 20 mg/kg): 0.4 days; MST ([19]; 160 mg/kg): 20.1 days and 16.5 days; MST ([10]; 320 mg/kg): 24.3 days
CCN(CC)CCNc1nc(Nc2ccc(Cl)c(Cl)c2)nc2cc(N)ccc12 | – | 30.5 | – | – | – | 13.2 days and 13.5 days | – | 3.2 days and 3.5 days | 3 | 4 | MST [15]: 29.8 days; MST ([6]; 20 mg/kg): 0.6 days and 0.9 days; MST ([8]; 80 mg/kg): 6 days and 6.3 days; Ratio [23]: 30.5; MST ([10]; 320 mg/kg): 16.8 days and 16.9 days
CN(C)C1CCC(Nc2nc(Nc3ccc(Cl)c(Cl)c3)c3ccccc3n2)CC1 (stereo not given) | – | – | 12.9 | 0.3 | 7.9 | – | 9.9 | 4.1 days and 3.7 days | 2 | 3 | No. of survivals [17]: 2; MST [19]: 12.6 days; No. of toxic deaths [5]: 2
CN1CCCC1CCNc1nc(Nc2ccc(C(F)(F)F)cc2)nc2ccccc12 (stereo not given) | 1.2 | 16 | 10.5 | 1 | 3.2 | – | 15.5 | – | – | – | No. of cured [24]: 4; MST [15]: 25.8 days; No. of cured [25]: 2; Ratio [26]: 4.7
CN1CCCC1CCNc1nc(Nc2ccc(Cl)c(Cl)c2)nc2ccc(Cl)cc12 (stereo not given) | – | 18.5 | – | 0.5 | 2.7 | 6.1 days and 2.5 days | 14.2 | 1.1 days and 0.5 days | 2 | – | MST [9]: 13.6 days; Ratio [27]: 4
CCN(CC)CCNc1nc(Nc2ccc(Cl)cc2)nc2ccccc12 | – | 35 | 11.1 | 1.6 | 6.2 | – | – | 4.1 days and 4.6 days | 3 | 5 | No. of survivals [17]: 2; No. of toxic deaths [22]: 2; Ratio [28]: 2.1
CCN(CC)C1CCC(Nc2nc(Nc3ccc(I)cc3)c3ccccc3n2)CC1 (stereo not given) | 0.5 | – | 14.4 | 0.3 | – | – | 9.9 | – | 2 | – | MST [29]: 9.4 days; No. of survivals ([18]; 640 mg/kg): 3 and 2; MST [19]: 8.6 days; MST ([8]; 80 mg/kg): 0.7 days and 0.5 days; No. of survivals [30]: 2
CSc1ccc(Nc2nc(NCCN3CCCC3)c3ccccc3n2)cc1 | – | 35 | – | 0.7 | 3.3 | 5.9 days and 4.7 days | 10.3 | 0.9 days and 0.3 days | – | – | Ratio [28]: 2.1
CCN(CC)Cc1cc(Nc2nc(NCCN3CCCC3)c3ccccc3n2)ccc1O | 1.7 | – | 10.2 | 0.3 | 2.1 | – | – | – | 1 | 1 | No. of toxic deaths [22]: 1; No. of toxic deaths [5]: 1
CCN1CCCC(Nc2nc(Nc3ccc(Cl)c(Cl)c3)nc3cc(Cl)ccc23)C1 (stereo not given) | – | 63 | – | 0.1 | 0.3 | – | 0.3 | – | – | – | Ratio [31]: 1.2
FC(F)(F)c1cc(Nc2nc(NCCN3CCCC3)c3ccccc3n2)cc(C(F)(F)F)c1 | 0.2 | 105 | 0.2 | – | – | – | – | – | – | – | MST [9]: 1 days; Ratio [23]: 105

Source: ChEMBL document CHEMBL1121775, “Synthesis and antimalarial effects of N2-aryl-N4-[(dialkylamino)alkyl]- and N4-aryl-N2-[(dialkylamino)alkyl]-2,4-quinazolinediamines” (J Med Chem, 1981)
